In patent publication US6043220A, “Threonine-containing protegrins” (IntraBiotics Pharmaceuticals, Inc., priority 1997, dated 2000):
≈ marks a conversion by molar mass, not a printed value. Square brackets hold non-standard residues; d marks the D form. Ends that are not written are not given here. Dbu = diaminobutyric acid (X in this publication); code O = not defined here; Orn = NCCC[C@H](N)C(=O)O

Key:
[1] = test system: E. coli; test: Antimicrobial activity against E. coli in borate buffered saline with and without lysozyme; assay type: cell-based; conditions: presence vs absence of lysozyme
From the text: The protegrins of the invention retain their activity against microbes in the context of borate solutions that are commonly used in eye care products. […] This effect was more pronounced when the PG-3 was autoclaved and similar patterns were obtained for both the free-acid and the amide forms. Accordingly, the protegrins may be used as preservatives in such compositions or as antimicrobials for treatment of eye infections, such as conjunctivitis and corneal ulcers.

[2] = test system: vancomycin resistant Enterococcus faecium (VREF); test: MIC, antimicrobial activity against VREF; assay type: cell-based
From the text: (§1) Methods were as described in WO 97/18826.

[3] = test system: Pseudomonas aruginosa (Psa); test: MIC, antimicrobial activity against Psa; assay type: cell-based
From the text: as §1

[4] = test system: Candida albicans (C. alb); test: MIC, antimicrobial activity against C. alb; assay type: cell-based
From the text: as §1

[5] = test system: methicillin resistant Staphylococcus aureus (MRSA); test: MIC, antimicrobial activity against MRSA; assay type: cell-based
From the text: as §1

[6] = test system: VRE; test: In vitro serum availability, MCZ assay, indicator bacteria VRE; assay type: cell-based, vancomycin-resistant Enterococcus faecium or faecalis; conditions: 50 μg/mL peptide; 90% serum as diluent; activity in serum vs same peptide without serum (100%)
Method: (§2) Peptide was tested at 50 μg/ml against two different strains of indicator bacteria (E. coli and VRE) both in the presence and absence of serum. For experiments performed in the presence of serum, 90% serum was used as the peptide diluent. Native PG-1 (SEQ ID NO:1) was tested as a control.
(§3) Percent availability refers to the activity of the indicated peptide in serum as compared with the activity of the same peptide in the absence of serum (assigned a value of 100%).

[7] = test system: E. coli; test: In vitro serum availability, MCZ assay, indicator bacteria E. coli; assay type: cell-based; conditions: 50 μg/mL peptide; 90% serum as diluent; activity in serum vs same peptide without serum (100%)
Method: as §2, §3

[8] = test system: ME-180 (human cervical carcinoma) cells; test: Cytotoxicity, MTT assay; assay type: cell-based; conditions: ME-180 cells
Method: Native protegrin PG-1 (SEQ ID NO:1) and melittin (SEQ ID NO:19) were tested as controls.

[9] = test system: human red blood cells; test: Hemolytic activity against human red blood cells; conditions: FIG. 1; compared with native PG-1 and melittin
Method: In the assay, various concentrations of peptides were incubated with human red blood cells and the percentage of hemolysis determined.

Row | Compound | effect of lysozyme on antimicrobial effectiveness [1] | MIC VREF [2] [μ g/ml] | MIC Psa [3] [μ g/ml] | MIC C. alb. [4] [μ g/ml] | MIC MRSA [5] [μ g/ml] | In Vitro Serum Availability (%) VRE [6] [%] | In Vitro Serum Availability (%) E. coli [7] [%] | EC50, MTT assay [8] [µg/mL] | cytotoxicity compared with native PG-1 and melittin (in words) ([8]; MTT assay) | hemolytic activity against human red blood cells (in words) [9]
1 | PG-3: naturally-occurring protegrin from porcine leukocytes; free-acid and amide forms (RGGGLCYCRRRFCVCVGR; ends and bridges not checked; also: free acid or amide forms; UniProt P32196 131-148, looked up) | the presence of lysozyme enhanced the effectiveness | – | – | – | – | – | – | – | – | –
2 | JLCFCOOOFCTCV-NH2 | – | 2 | 4 | 64 | 64 | – | – | – | – | –
3 | OGGOTCYCOOOFCVCVGO-NH2 ([code O]GG[code O]TCYC[code O][code O][code O]FCVCVG[code O]-NH2; cysteine pairing not given here; reading uncertain; also: printed as OGGOTCYCOOOFCVCVGO-NH2) | – | 3.3 | 1 | > 64 | > 64 | 9 | 40 | – | – | –
4 | WTCYCOOOFCVCV-NH2 (WTCYC[code O][code O][code O]FCVCV-NH2; cysteine pairing not given here; reading uncertain; also: printed as WTCYCOOOFCVCV-NH2) | – | 0.25 | 1 | 1.6 | 16 | 2 | 4 | – | – | –
5 | RGGRLCYCRRRFCTCVGR-NH2 (ends and bridges not checked) [[^14 T]PG-1] | – | – | – | – | – | – | – | 154.8 | less cytotoxic than native PG-1 and the control peptide melittin | decreased hemolytic activity
6 | RGGRLCTCRRRFCVCVGR-NH2 (ends and bridges not checked) [[^7 T]PG-1] | – | – | – | – | – | – | – | 50.4 | – | decreased hemolytic activity
7 | RGGRLCYCRRRFCVCTGR-NH2 (ends and bridges not checked) [[^16 T]PG-1] | – | – | – | – | – | – | – | 122.6 | – | decreased hemolytic activity
8 | XTXLCYCXXXFCTCV-NH2 ([Dbu]T[Dbu]LCYC[Dbu][Dbu][Dbu]FCTCV-NH2; not fully specified (N-terminus); cysteine pairing not given here) [*XTXLCYCXXXFCTCV-NH2] | – | 1 | 1.3 | 8 | 16 | – | – | – | – | –
9 | RGGRTCYCRRRFCVCVGR-NH2 (ends and bridges not checked) [[^5 T]PG-1] | – | 0.3 | 2 | 8 | 8 | 1.6 | 10 | 101.3 | – | decreased hemolytic activity
10 | OTTLCYCOGOFCVCVGO-NH2 ([Orn]TTLCYC[Orn]G[Orn]FCVCVG[Orn]-NH2; cysteine pairing not given here) | – | 1 | 0.5 | 32 | 32 | 3 | 10 | – | – | –
11 | CC[C@H](C)[C@H](NC(=O)CN)C(=O)NCC(=O)N[C@@H](C)C(=O)N[C@H](C(=O)N[C@@H](CC(C)C)C(=O)N[C@@H](CCCCN)C(=O)N[C@H](C(=O)N[C@@H](CC(C)C)C(=O)N[C@H](C(=O)N[C@H](C(=O)NCC(=O)N[C@@H](CC(C)C)C(=O)N1CCC[C@H]1C(=O)N[C@@H](C)C(=O)N[C@@H](CC(C)C)C(=O)N[C@H](C(=O)N[C@@H](CO)C(=O)N[C@@H](Cc1c[nH]c2ccccc12)C(=O)N[C@H](C(=O)N[C@@H](CCCCN)C(=O)N[C@@H](CCCNC(=N)N)C(=O)N[C@@H](CCCCN)C(=O)N[C@@H](CCCNC(=N)N)C(=O)N[C@@H](CCC(N)=O)C(=O)N[C@@H](CCC(N)=O)C(N)=O)[C@@H](C)CC)[C@@H](C)CC)[C@@H](C)O)[C@@H](C)O)C(C)C)C(C)C [Melittin, reference compound] | – | – | – | – | – | – | – | 8.0 (≈ 2.81 µM) | – | –
12 | CC(C)C[C@H](NC(=O)[C@H](CCCNC(=N)N)NC(=O)CNC(=O)CNC(=O)[C@@H](N)CCCNC(=N)N)C(=O)N[C@H]1CSSC[C@@H](C(=O)N[C@H](C(=O)NCC(=O)N[C@@H](CCCNC(=N)N)C(N)=O)C(C)C)NC(=O)[C@H](C(C)C)NC(=O)[C@@H]2CSSC[C@H](NC(=O)[C@H](Cc3ccc(O)cc3)NC1=O)C(=O)N[C@@H](CCCNC(=N)N)C(=O)N[C@@H](CCCNC(=N)N)C(=O)N[C@@H](CCCNC(=N)N)C(=O)N[C@@H](Cc1ccccc1)C(=O)N2 [Native PG-1, RGGRLCYCRRRFCVCVGR-NH2, reference compound] | – | – | – | – | – | – | – | – | – | hemolytic against human red blood cells
13 | OTOLCYCOZOFCVCV-NH2 | – | 8 | 2 | > 64 | 64 | 8 | 30 | – | – | –
14 | JTCYCOOOFCVCV-NH2 | – | 6.67 | 2 | > 64 | 32 | – | – | – | – | –
15 | JTCFCOOOFCTCV-NH2 | – | 32 | 16 | > 128 | > 128 | – | – | – | – | –
